Data published in patent US20260356830A1, “COMPOUNDS FOR MODULATING RET PROTEIN” (Bristol-Myers Squibb Company, priority 2022, published 2026).

Target: T1, CCDC6-RET (Homo sapiens, UniProt P07949+Q16204+Q96SW2)
T1 construct: CCDC6 (natural N-terminal fusion partner, UniProt Q16204); endogenous in cells; host or cells: TPC-1 (parental, papillary thyroid carcinoma)
Test: Cellular RET degradation, AlphaLISA, TPC-1 cell line
Type: cell-based
Conditions: for Dmax: TPC1, human, 24 h, read-out: Cell Density TPC-1/CCDC6-RET Ymax %; for DC50: read-out: Cell Density TPC-1/CCDC6-RET DC50, half-maximal degradation concentration, TPC-1 (CCDC6-RET), 24 hrs
Procedure: Cellular RET degradation compound potency was determined using the bead-based luminescent amplification assay-AlphaLISA Surefire Ultra Detection Kit (Perkin-Elmer). The CCDC6-RET fusion expressing papillary thyroid carcinoma (TPC-1) cell line was selected for screening of potential degraders: Parental (TPC-1/CCDC6-RET). Cells were plated in 384 well culture plates (Greiner Bio-One) at 10,000 cells/well in 50 ul/well DMEM (Fisher Scientific) with 2% FBS serum (Gibco). […] Low normalization wells were media only and high normalization wells were cells treated with DMSO only. Treated cell plates were placed in an incubator at 37 °C and 5% CO2 for 24 hrs. At 24 hrs, cell media was removed by a FELIX automated liquid hander (Analytik Jena) and 25 ul of cell lysis buffer (provided in AlphaLisa kit) was added to each well. […] cell lysate were transferred into a 384-well microplate (Perkin Elmer) before addition of 2.5 ul AlphaLISA Acceptor Bead mix. The plates were sealed and kept at room temperature for 1 hr before addition of donor bead mixture. Donor bead addition was performed in the dark and incubated for >1 hr before AlphaLISA luminescence was measured on an Envision plate reader with an Alphascreen aperture at RT (excitation 680 nm, emission 615 nm). RET protein abundance (and therefore degradation) directly corresponds to luminescence intensity.
Intensities were normalized relative to the average values from 16 wells containing media alone (blank-low) and 16 wells containing cells +DMSO (high). % Degradation for each well was determined using the standard equation, where
DC50 (IC50) values for each compound tested are calculated by analyzing plots of % degradation versus compound concentration, and fitting to the standard 4-parameter logistic curve where,
DC50 values are calculated according to the relationship,
Compound replicates were performed in independent assays. Maximum degradation (YMax) was defined as the maximal % degradation value from the 4-parameter logistic equation, as previously described.

T1 sequence (Q16204+P07949 fused): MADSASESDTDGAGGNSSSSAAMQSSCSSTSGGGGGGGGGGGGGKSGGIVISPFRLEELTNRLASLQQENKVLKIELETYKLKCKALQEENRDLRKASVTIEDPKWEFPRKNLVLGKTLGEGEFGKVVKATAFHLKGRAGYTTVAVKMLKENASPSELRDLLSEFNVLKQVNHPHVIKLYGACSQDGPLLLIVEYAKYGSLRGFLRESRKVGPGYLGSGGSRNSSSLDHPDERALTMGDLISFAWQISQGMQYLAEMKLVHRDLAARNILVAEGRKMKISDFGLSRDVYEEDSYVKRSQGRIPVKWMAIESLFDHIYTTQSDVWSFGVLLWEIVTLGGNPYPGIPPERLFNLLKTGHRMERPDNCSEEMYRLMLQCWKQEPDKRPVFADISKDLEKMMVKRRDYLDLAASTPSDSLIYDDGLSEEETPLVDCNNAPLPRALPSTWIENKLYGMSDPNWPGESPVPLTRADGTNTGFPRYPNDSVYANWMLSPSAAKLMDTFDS
T1 sequence (Q96SW2 whole entry, the tested form may be a part): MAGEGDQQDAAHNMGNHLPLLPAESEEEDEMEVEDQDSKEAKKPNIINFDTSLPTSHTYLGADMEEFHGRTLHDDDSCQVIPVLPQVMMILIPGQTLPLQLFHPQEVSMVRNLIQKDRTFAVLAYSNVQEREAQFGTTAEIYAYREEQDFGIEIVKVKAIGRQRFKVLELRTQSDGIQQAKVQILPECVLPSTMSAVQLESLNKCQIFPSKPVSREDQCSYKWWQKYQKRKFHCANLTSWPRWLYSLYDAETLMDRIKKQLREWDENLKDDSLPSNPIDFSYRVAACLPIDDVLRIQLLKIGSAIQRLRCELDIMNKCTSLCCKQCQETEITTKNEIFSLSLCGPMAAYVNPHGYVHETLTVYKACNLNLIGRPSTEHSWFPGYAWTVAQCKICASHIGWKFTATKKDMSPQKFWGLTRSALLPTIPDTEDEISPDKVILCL
T1 sequence (Q16531 whole entry partner, the tested form may be a part): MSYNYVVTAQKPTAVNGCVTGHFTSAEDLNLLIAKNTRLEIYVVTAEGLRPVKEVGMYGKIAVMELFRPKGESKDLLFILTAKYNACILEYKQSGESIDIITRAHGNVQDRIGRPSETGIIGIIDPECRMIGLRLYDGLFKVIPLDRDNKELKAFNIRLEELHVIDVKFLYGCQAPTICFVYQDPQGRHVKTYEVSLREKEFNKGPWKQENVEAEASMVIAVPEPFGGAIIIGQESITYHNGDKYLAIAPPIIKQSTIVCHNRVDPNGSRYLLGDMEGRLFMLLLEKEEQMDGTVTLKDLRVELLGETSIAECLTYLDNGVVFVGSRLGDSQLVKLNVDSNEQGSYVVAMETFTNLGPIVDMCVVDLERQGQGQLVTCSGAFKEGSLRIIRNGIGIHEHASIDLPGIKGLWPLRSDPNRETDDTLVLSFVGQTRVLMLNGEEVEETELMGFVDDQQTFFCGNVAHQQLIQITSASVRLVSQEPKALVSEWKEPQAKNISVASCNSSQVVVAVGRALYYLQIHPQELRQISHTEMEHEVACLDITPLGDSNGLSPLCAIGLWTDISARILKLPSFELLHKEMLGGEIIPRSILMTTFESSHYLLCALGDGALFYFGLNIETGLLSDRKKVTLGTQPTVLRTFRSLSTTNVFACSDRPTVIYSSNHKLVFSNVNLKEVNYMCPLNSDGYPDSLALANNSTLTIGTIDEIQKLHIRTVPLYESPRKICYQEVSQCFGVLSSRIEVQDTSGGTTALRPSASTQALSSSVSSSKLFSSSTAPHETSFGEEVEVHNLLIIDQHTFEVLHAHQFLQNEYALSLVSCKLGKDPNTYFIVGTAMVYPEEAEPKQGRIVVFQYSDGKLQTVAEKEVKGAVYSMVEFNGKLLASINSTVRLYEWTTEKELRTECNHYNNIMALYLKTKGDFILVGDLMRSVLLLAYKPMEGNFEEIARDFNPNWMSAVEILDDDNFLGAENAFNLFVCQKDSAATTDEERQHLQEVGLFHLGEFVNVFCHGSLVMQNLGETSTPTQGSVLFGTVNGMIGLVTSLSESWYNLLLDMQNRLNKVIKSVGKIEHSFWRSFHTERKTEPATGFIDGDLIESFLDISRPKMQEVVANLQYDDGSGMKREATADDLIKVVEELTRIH

Compound | Dmax | DC50
CCOc1cc(-c2ccc(N3CCC(COCC(=O)NCCCCN4CCN(c5ccc6c(c5)CN(C5CCC(=O)NC5=O)C6=O)CC4)(NC(=O)c4cc(F)ccc4F)CC3)nc2)c2c(C#N)cnn2c1 (stereo not drawn) [Example 31, N-[1-[5-(3-cyano-6-ethoxy-pyrazolo[1,5-a]pyridin-4-yl)-2-pyridyl]-4-[[2-[4-[4-[2-(2,6-dioxo-3-piperidyl)-1-oxo-isoindolin-5-yl]piperazin-1-yl]butylamino]-2-oxo-ethoxy]methyl]-4-piperidyl]-2,5-difluoro-benzamide] | 60 to 90% | 2 to 10 nM
CCOc1cc(-c2ccc(N3CCC(COCCN4CCN(C(=O)CCN5CCC(c6ccc7c(c6)C(=O)N(C6CCC(=O)NC6=O)C7)CC5)CC4)(NC(=O)c4cc(F)ccc4F)CC3)nc2)c2c(C#N)cnn2c1 (stereo not drawn) [Example 32, N-[1-[5-(3-cyano-6-ethoxy-pyrazolo[1,5-a]pyridin-4-yl)-2-pyridyl]-4-[2-[4-[3-[4-[2-(2,6-dioxo-3-piperidyl)-3-oxo-isoindolin-5-yl]-1-piperidyl]propanoyl]piperazin-1-yl]ethoxymethyl]-4-piperidyl]-2,5-difluoro-benzamide] | 60 to 90% | 10 to 100 nM
CCOc1cc(-c2ccc(N3CCC(COCCN4CCN(C(=O)CCN5CCN(c6ccc7c(c6)C(=O)N(C6CCC(=O)NC6=O)C7)CC5)CC4)(NC(=O)c4cc(F)ccc4F)CC3)nc2)c2c(C#N)cnn2c1 (stereo not drawn) [Example 33, N-[1-[5-(3-cyano-6-ethoxy-pyrazolo[1,5-a]pyridin-4-yl)-2-pyridyl]-4-[2-[4-[3-[4-[2-(2,6-dioxo-3-piperidyl)-3-oxo-isoindolin-5-yl]piperazin-1-yl]propanoyl]piperazin-1-yl]ethoxymethyl]-4-piperidyl]-2,5-difluoro-benzamide] | 60 to 90% | 2 to 10 nM
CCOc1cc(-c2ccc(N3CCC(COCCN4CCN(C(=O)CCN5CCN(c6ccc7c(c6)CN(C6CCC(=O)NC6=O)C7=O)CC5)CC4)(NC(=O)c4cc(F)ccc4F)CC3)nc2)c2c(C#N)cnn2c1 (stereo not drawn) [Example 34, N-[1-[5-(3-cyano-6-ethoxy-pyrazolo[1,5-a]pyridin-4-yl)-2-pyridyl]-4-[2-[4-[3-[4-[2-(2,6-dioxo-3-piperidyl)-1-oxo-isoindolin-5-yl]piperazin-1-yl]propanoyl]piperazin-1-yl]ethoxymethyl]-4-piperidyl]-2,5-difluoro-benzamide] | > 90% | 10 to 100 nM
CCOc1cc(-c2ccc(N3CCC(COCCN4CCN(C(=O)CCCCN5CCN(c6ccc7c(c6)CN(C6CCC(=O)NC6=O)C7=O)CC5)CC4)(NC(=O)c4cc(F)ccc4F)CC3)nc2)c2c(C#N)cnn2c1 (stereo not drawn) [Example 35, N-[1-[5-(3-cyano-6-ethoxy-pyrazolo[1,5-a]pyridin-4-yl)-2-pyridyl]-4-[2-[4-[5-[4-[2-(2,6-dioxo-3-piperidyl)-1-oxo-isoindolin-5-yl]piperazin-1-yl]pentanoyl]piperazin-1-yl]ethoxymethyl]-4-piperidyl]-2,5-difluoro-benzamide] | > 90% | 10 to 100 nM
CCOc1cc(-c2ccc(N3CCC(COCC(=O)NCCCCCCN4CCN(c5ccc6c(c5)CN(C5CCC(=O)NC5=O)C6=O)CC4)(NC(=O)c4cc(F)ccc4F)CC3)nc2)c2c(C#N)cnn2c1 (stereo not drawn) [Example 38, N-[1-[5-(3-cyano-6-ethoxy-pyrazolo[1,5-a]pyridin-4-yl)-2-pyridyl]-4-[[2-[6-[4-[2-(2,6-dioxo-3-piperidyl)-1-oxo-isoindolin-5-yl]piperazin-1-yl]hexylamino]-2-oxo-ethoxy]methyl]-4-piperidyl]-2,5-difluoro-benzamide] | > 90% | < 2 nM
CCOc1cc(-c2ccc(N3CCC(CN4CCN(C(=O)CCN5CCN(c6ccc7c(N8CCC(=O)NC8=O)nn(C)c7c6)CC5)CC4)(NC(=O)c4cc(F)ccc4F)CC3)nc2)c2c(C#N)cnn2c1 [Example 39, N-(1-(5-(3-cyano-6-ethoxypyrazolo[1,5-a]pyridin-4-yl)pyridin-2-yl)-4-((4-(3-(4-(3-(2,4-dioxotetrahydropyrimidin-1(2H)-yl)-1-methyl-1H-indazol-6-yl)piperazin-1-yl)propanoyl)piperazin-1-yl)methyl)piperidin-4-yl)-2,5-difluorobenzamide] | 60 to 90% | < 2 nM
CCOc1cc(-c2ccc(N3CCC(CN4CCN(C(=O)CCCCN5CCN(c6ccc7c(N8CCC(=O)NC8=O)nn(C)c7c6)CC5)CC4)(NC(=O)c4cc(F)ccc4F)CC3)nc2)c2c(C#N)cnn2c1 [Example 40, N-(1-(5-(3-cyano-6-ethoxypyrazolo[1,5-a]pyridin-4-yl)pyridin-2-yl)-4-((4-(5-(4-(3-(2,4-dioxotetrahydropyrimidin-1(2H)-yl)-1-methyl-1H-indazol-6-yl)piperazin-1-yl)pentanoyl)piperazin-1-yl)methyl)piperidin-4-yl)-2,5-difluorobenzamide] | > 90% | 2 to 10 nM
CCOc1cc(-c2ccc(N3CCC(CN4CCN(C(=O)CCCCCCN5CCN(c6ccc7c(N8CCC(=O)NC8=O)nn(C)c7c6)CC5)CC4)(NC(=O)c4cc(F)ccc4F)CC3)nc2)c2c(C#N)cnn2c1 [Example 41, N-(1-(5-(3-cyano-6-ethoxypyrazolo[1,5-a]pyridin-4-yl)pyridin-2-yl)-4-((4-(7-(4-(3-(2,4-dioxotetrahydropyrimidin-1(2H)-yl)-1-methyl-1H-indazol-6-yl)piperazin-1-yl)heptanoyl)piperazin-1-yl)methyl)piperidin-4-yl)-2,5-difluorobenzamide] | > 90% | < 2 nM

The next lines start with the values.

Dmax | DC50 | Compound
– | < 2 nM | CCOc1cc(-c2ccc(N3CCC(CN4CCN(C(=O)CCCCCN5CCC(c6ccc7c(N8CCC(=O)NC8=O)nn(C)c7c6)CC5)CC4)(NC(=O)c4cc(F)ccc4F)CC3)nc2)c2c(C#N)cnn2c1 [Example 42, N-(1-(5-(3-cyano-6-ethoxypyrazolo[1,5-a]pyridin-4-yl)pyridin-2-yl)-4-((4-(6-(4-(3-(2,4-dioxotetrahydropyrimidin-1(2H)-yl)-1-methyl-1H-indazol-6-yl)piperidin-1-yl)hexanoyl)piperazin-1-yl)methyl)piperidin-4-yl)-2,5-difluorobenzamide]
> 90% | < 2 nM | CCOc1cc(-c2ccc(N3CCC(CN4CCN(C(=O)CCCN5CCN(c6ccc7c(N8CCC(=O)NC8=O)nn(C)c7c6)CC5)CC4)(NC(=O)c4cc(F)ccc4F)CC3)nc2)c2c(C#N)cnn2c1 [Example 43, N-(1-(5-(3-cyano-6-ethoxypyrazolo[1,5-a]pyridin-4-yl)pyridin-2-yl)-4-((4-(4-(4-(3-(2,4-dioxotetrahydropyrimidin-1(2H)-yl)-1-methyl-1H-indazol-6-yl)piperazin-1-yl)butanoyl)piperazin-1-yl)methyl)piperidin-4-yl)-2,5-difluorobenzamide]
60 to 90% | < 2 nM | CCOc1cc(-c2ccc(N3CCC(CN4CCN(C(=O)CN5CCC(c6ccc7c(N8CCC(=O)NC8=O)nn(C)c7c6)CC5)CC4)(NC(=O)c4cc(F)ccc4F)CC3)nc2)c2c(C#N)cnn2c1 [Example 44, N-(1-(5-(3-cyano-6-ethoxypyrazolo[1,5-a]pyridin-4-yl)pyridin-2-yl)-4-((4-(2-(4-(3-(2,4-dioxotetrahydropyrimidin-1(2H)-yl)-1-methyl-1H-indazol-6-yl)piperidin-1-yl)acetyl)piperazin-1-yl)methyl)piperidin-4-yl)-2,5-difluorobenzamide]
> 90% | 2 to 10 nM | CCOc1cc(-c2ccc(N3CCC(COCc4cn(CCCCCCN5CCN(c6ccc7c(c6)CN(C6CCC(=O)NC6=O)C7=O)CC5)nn4)(NC(=O)c4cc(F)ccc4F)CC3)nc2)c2c(C#N)cnn2c1 (stereo not drawn) [Example 47, N-[1-[5-(3-cyano-6-ethoxy-pyrazolo[1,5-a]pyridin-4-yl)-2-pyridyl]-4-[[1-[6-[4-[2-(2,6-dioxo-3-piperidyl)-1-oxo-isoindolin-5-yl]piperazin-1-yl]hexyl]triazol-4-yl]methoxymethyl]-4-piperidyl]-2,5-difluoro-benzamide]
> 90% | 2 to 10 nM | CCOc1cc(-c2ccc(N3CCC(COCc4cn(CCCCN5CCN(c6ccc7c(c6)CN(C6CCC(=O)NC6=O)C7=O)CC5)nn4)(NC(=O)c4cc(F)ccc4F)CC3)nc2)c2c(C#N)cnn2c1 (stereo not drawn) [Example 48, N-[1-[5-(3-cyano-6-ethoxy-pyrazolo[1,5-a]pyridin-4-yl)-2-pyridyl]-4-[[1-[4-[4-[2-(2,6-dioxo-3-piperidyl)-1-oxo-isoindolin-5-yl]piperazin-1-yl]butyl]triazol-4-yl]methoxymethyl]-4-piperidyl]-2,5-difluoro-benzamide]
